Like-named read-outs stand apart in the source and are kept apart here.
Key:
[1] = system: P. falciparum Dd2 (PfLuc) line expressing firefly luciferase, asexual blood stage; assay: microbe, parasite or virus in culture; assay type: cell-based, Plasmodium falciparum
P. falciparum Dd2 = assay: SYBR green I asexual blood stage proliferation assay (96 h); assay type: cell-based, Plasmodium falciparum; conditions: Plasmodium falciparum; 96 h, Dd2; read-out: 96 h SYBR green ABS IC50
[2] = Plasmodium falciparum, DD2, 8-pt dose response, 96hr, read-out: P. falciparum Luciferase ABS 8-pt Reconfirmation Dose Response (96hr): IC50
[3] = Plasmodium falciparum, DD2, 8-pt dose response, 96hr, read-out: P. falciparum Luciferase ABS 8-pt Reconfirmation Dose Response (96hr): Maximum inhibition (%)
[4] = Plasmodium falciparum, DD2, read-out: P. falciparum Luciferase ABS 11-pt Reconfirmation Dose Response (48hr): IC50, 11-pt dose response, 48hr
[5] = Plasmodium falciparum, DD2, 11-pt dose response, 96hr, read-out: P. falciparum Luciferase ABS 11-pt Reconfirmation Dose Response (96hr): IC50
[6] = Plasmodium falciparum, DD2, 11-pt dose response, 96hr, read-out: P. falciparum Luciferase ABS 11-pt Reconfirmation Dose Response (96hr): Maximum inhibition (%)
[7] = Plasmodium falciparum, DD2, 11-pt dose response, 48hr, read-out: P. falciparum Luciferase ABS 11-pt Reconfirmation Dose Response (48hr): Maximum inhibition (%)
[8] = Plasmodium falciparum, DD2, 8-pt dose response, 96hr, read-out: CDD P. falciparum Luciferase ABS 8-pt Reconfirmation Dose Response (96hr): IC50
[9] = Plasmodium falciparum, DD2, 8-pt dose response, 96hr, read-out: CDD P. falciparum Luciferase ABS 8-pt Reconfirmation Dose Response (96hr): Maximum inhibition (%)

Row | Molecule | IC50 [1, 2] [µM] | Emax [1, 3] [%] | other results
1 | Cc1ccccc1CN(CCN(C)C)Cc1ccc(S(C)(=O)=O)cc1 [DDD01251767] | 1.52 | 76.8 | 
2 | COc1cccc(OC)c1CN1CC(=O)N(c2ccc(C)cc2)CC1C (centres unmarked) [DDD01252418] | 1.26 | 89.5 | IC50 [1, 4]: 3.67 µM; IC50 [1, 5]: 1.8 µM; Emax [1, 6]: 93.6%
3 | Cc1nc(-c2cc(Cl)c3c(c2)CC(CN)O3)c[nH]1 (centres unmarked) [DDD01252814] | 2.18 | 88.7 | 
4 | CCC[C@H]1CN(c2nc(CO)cs2)C[C@@H]1NC(=O)C1(COC)CC1 [DDD01253377] | 1.81 | 80.7 | 
5 | Cc1cc(S(=O)(=O)NCC2CNCCOC2)c(C)cc1Cl (centres unmarked) [DDD01253448] | 1.24 | 89.3 | IC50 [1, 4]: > 4.16 µM; Emax [1, 7]: 24.9%; IC50 [1, 5]: 1.64 µM; Emax [1, 6]: 89%
6 | Cc1cccnc1CC(C)NC1Cc2ccccc2C1 (centres unmarked) [DDD01255733] | 1.76 | 81.8 | 
7 | Cc1c(C(=O)N2CCC(N3CCCCC3)CC2)n(C)c2ccc(Cl)cc12 [DDD01255900] |  |  | IC50 ([1]; Plasmodium falciparum, DD2, read-out: CDD P. falciparum Luciferase ABS 11-pt Reconfirmation Dose Response (48hr): IC50 (μM), 11-pt dose response, 48hr): 3.56 µM; IC50 [1, 8]: 1.11 µM; Emax [1, 9]: 93.8%; Emax ([1]; Plasmodium falciparum, DD2, 11-pt dose response, 48hr, read-out: CDD P. falciparum Luciferase ABS 11-pt Reconfirmation Dose Response (48hr): Maximum inhibition (%)): 96.3%; IC50 ([1]; Plasmodium falciparum, DD2, 11-pt dose response, 96hr, read-out: CDD P. falciparum Luciferase ABS 11-pt Reconfirmation Dose Response (96hr): IC50): 1.7 µM; Emax ([1]; Plasmodium falciparum, DD2, 11-pt dose response, 96hr, read-out: CDD P. falciparum Luciferase ABS 11-pt Reconfirmation Dose Response (96hr): Maximum inhibition (%)): 98.9%
8 | c1ccc2sc(N3CCCN(c4ncnc5c4CCNC5)CC3)nc2c1 [DDD01257073] | 1.83 | 84 | 
9 | O=C(c1ccc(F)c(Cl)c1)N1C[C@H]2CC[C@@H](C1)N(Cc1ccccc1)C2 [DDD01257805] | 1.16 | 85.8 | IC50 [1, 4]: 5.31 µM; Emax [1, 7]: 91.8%; IC50 [1, 5]: 2.39 µM; Emax [1, 6]: 97.8%
10 | Cc1cc(F)ccc1CN1CCC(O)(CN2CCCCC2)C1 (centres unmarked) [DDD01258113] | 1.22 | 83.7 | 
11 | CCC1CN(C(=O)c2ccc(Cl)cc2O)CCN1C(C)C (centres unmarked) [DDD01258121] | 2.57 | 80.5 | 
12 | CN1CCCC(c2cccc(Cc3ccccc3Cl)n2)C1 (centres unmarked) [DDD01270191] | 1.72 | 80.2 | 
13 | CCN1CCCC(CNC(=O)C2(c3cc(C)cc(C)c3)CCC2)C1 (centres unmarked) [DDD01296287] | 1.39 |  | 
14 | CC(O)CN1CCC(CNCc2ccc(OC(F)(F)F)cc2)CC1 (centres unmarked) [DDD01297562] | 1.25 | 90.4 | 
15 | CN1CCCC1CNC(=O)CCCOc1cccc(Br)c1 (centres unmarked) [DDD01297989] | 1.4 | 83.9 | 
16 | CCN(CC)C(CNC(=O)c1c(C)noc1C(C)C)c1ccsc1 (centres unmarked) [DDD01298744] |  |  | IC50 [1, 8]: 0.96 µM; Emax [1, 9]: 85.7%
17 | c1cnnc(N2CCCC2CNc2ncnc3sccc23)c1 (centres unmarked) [DDD01299704] | 1.61 | 92.3 | 
18 | CN(Cc1ncc(C(C)(C)C)o1)CC1CCCN1c1cccnn1 (centres unmarked) [DDD01301524] | 1.81 |  | 
19 | C[C@@H]1CC[C@H]2[C@@H](C)C(=O)O[C@@H]3O[C@@]4(C)CC[C@@H]1[C@]32OO4 [artemisinin, reference compound] |  |  | inhibition at 10 µM ([1]; Plasmodium falciparum, DD2, 96 h, control at 10 μM, read-out: mean inhibition of positive control in ABS primary screen): 99.6 ± 1.03%
20 | CCC[C@@H]1C[C@@H](C(=O)N[C@@H]([C@H]2O[C@H](SC)[C@H](O)[C@@H](O)[C@H]2O)[C@H](C)Cl)N(C)C1 [clindamycin, reference compound] |  |  | IC50 (P. falciparum Dd2): > 10000 nM
21 | Doxycycline [reference compound] |  |  | IC50 ([1]; 96 h incubation, Dd2 luciferase, read-out: 96 hour Pfluc IC50): 0.55 ± 0.2 µM; IC50 ([1]; read-out: 48 hour Pfluc IC50, 48 h incubation, Dd2 luciferase): 7.18 ± 1.59 µM

— article PMC7155171, “Probing the Open Global Health Chemical Diversity Library for Multistage-Active Starting Points for Next-Generation Antimalarials” (ACS Infectious Diseases, 2020)
